Data on six compounds can be found in patent US11384114B2, “Polymorphic forms of an oxysterol and methods of making them” (Warsaw Orthopedic, Inc., priority 2016, dated 2022).

What all share (type): physicochemical
A short description of series [1]: Stability of the crystal form on stirring in the acetone/water solvent system. To be noted: slurry stirred in acetone/water (Form C at about 20° C.; Form F at about 20° C. or about 5° C.).
Series [2] in a line: Karl-Fisher (KF) water determination of isolated solid. To be noted: for KF (water content determined by Karl Fischer water determination method): OXY133 polymorph sample, processing point and temperature differ per item of Table 15; for KF (Wt %) water content: solid isolated from acetone/water slurry at 0-25° C. From the text:
Further, Table 15 below is a list of OXY133 polymorphs Forms A, B, C, D, E, F, G, H and I identified by a high performance liquid chromatography (HPLC) followed by charged aerosol detector (CAD) method. Table 15 also lists the starting products, the solvent system including solvent and anti-solvent, the temperature at which a polymorph was formed, the water content of the polymorph as determined by the Karl-Fisher (KF) method of water determination, and where available, the yield and purity of the resulting polymorph.

Series [3] is described as follows: Crystal form stability on vacuum oven drying. The note with it: for Crystal Form (XRPD): solid after drying at 20, 35 or 50 C, solvent system differs per item. As to the method: 2.0 g anhydrous OXY133 was added to 10 mL isopropanol in a 100 mL polyblock reactor. The mixture was heated to 30° C. and then stirred at 30° C. for 45 minutes until the solids were dissolved completely. Acceptable heating temperatures ranged from 25° C. to 35° C. A polish filtration step can be added after dissolving the anhydrous OXY133. The mixture of anhydrous OXY133 and isopropanol was then cooled to 5° C. 20 mL of water was then added to the cooled mixture over 120 minutes at 5° C., resulting in the formation of a precipitate approximately one third of the way through the addition of water. The water addition can also be done in temperature ranges from about 0° C. to about 20° C. with no significant effect on the crystal structure. The resulting mixture of OXY133, isopropanol and water was then stirred at 5° C. for 18 hours. However, it is recommended that the resulting mixture could be mixed for at least 2 hours at 5° C. after the water addition was complete to ensure that all solids were precipitated from the solution. A white solid was collected by rapidly filtering the mixture and then washing the solid with 2.0 mL of an isopropanol:water mixture in a ratio of 1:2 v/v. The filtered and washed solids were then dried in a vacuum oven at 20° C. Acceptable temperatures for drying can range from about 20° C. to about 30° C.

A further series can be described thus: DSC/TGA water loss. How it is done: Differential scanning calorimetry (DSC) and thermo-gravimetric analysis (TGA) were also collected for some of the OXY133 polymorphs. The equipment utilized to collect the DSC/TGA data was a Mettler Toledo DSC 2 equipped with an aluminum 40 μL crimped pan with a pin hole and the ramp rate was 10° C./min. DSC/TGA thermograms identifying several OXY133 polymorphs are illustrated in FIGS. 20-25.

[4] abbreviates: isolated solid, lot 2891-28-1, prepared from anhydrous OXY133 in isopropanol/water at 5° C. (Example 6).

Values joined by “and” are separate entries in the source; they are usually repeats but may differ in a detail not shown here. Equal entries are not always repeated.

Take `CCCCCC[C@](C)(O)[C@H]1CC[C@H]2[C@@H]3C[C@H](O)[C@H]4C[C@@H](O)CC[C@]4(C)[C@H]3CC[C@@]21C` [Form F]: the “stability of crystal form in acetone/water solvent system” value in series [1] is given as “somewhat stable”.

With `CCCCCC[C@](C)(O)[C@H]1CC[C@H]2[C@@H]3C[C@H](O)[C@H]4C[C@@H](O)CC[C@]4(C)[C@H]3CC[C@@]21C` [Form 2891-10-3], in series [2], the KF (water content determined by Karl Fischer water determination method) was found to be 4.02% and the “KF (Wt %) water content” value is listed as 4.02 Wt %. Also, in series [3], the “Crystal Form (XRPD)” value is “Form A”.

For the compound `CCCCCC[C@](C)(O)[C@H]1CC[C@H]2[C@@H]3C[C@H](O)[C@H]4C[C@@H](O)CC[C@]4(C)[C@H]3CC[C@@]21C` [Form C], in series [1], the “stability of crystal form in acetone/water solvent system” value is reported as “fairly stable”.

In the case of `CCCCCC[C@](C)(O)[C@H]1CC[C@H]2[C@@H]3C[C@H](O)[C@H]4C[C@@H](O)CC[C@]4(C)[C@H]3CC[C@@]21C` [Form 2891-8-3], in series [2], the KF (water content determined by Karl Fischer water determination method) is 3.25% and the “KF (Wt %) water content” value is 3.25 Wt %. Besides, the “Crystal Form (XRPD)” value in series [3] is “Form A”.

Turning to `CCCCCC[C@](C)(O)[C@H]1CC[C@H]2[C@@H]3C[C@H](O)[C@H]4C[C@@H](O)CC[C@]4(C)[C@H]3CC[C@@]21C` [Form 2891-9-3], in series [2], the KF (water content determined by Karl Fischer water determination method) came out at 3.83% and the “KF (Wt %) water content” value stood at 3.83 Wt %. In addition, the “Crystal Form (XRPD)” value in series [3] is recorded as “Form A”.

On to `CCCCCC[C@](C)(O)[C@H]1CC[C@H]2[C@@H]3C[C@H](O)[C@H]4C[C@@H](O)CC[C@]4(C)[C@H]3CC[C@@]21C.O` [Form A, (3S,5S,6S,8R,9S,10R,13S,14S,17S)-17-((S)-2-hydroxyoctan-2-yl)-10,13-dimethylhexadecahydro-1H-cyclopenta[a]phenanthrene-3,6-diol, monohydrate], for which the KF in series [2] (setting [4]) was 4.07%. Further, the “crystal form change on drying” value in series [3] (drying at temperatures above about 20° C. to about 30° C.) is given as “slow conversion of OXY133 monohydrate to a different, unknown crystal form”. Besides, the DSC/TGA in “DSC/TGA water loss” (setting [4]) came to 4.76%. Besides, the “water loss (DSC/TGA)” value in the series “DSC/TGA water loss” (ramp rate 10° C./min, listed as OXY133 monohydrate, monohydrate) is 4.57% and 4.00%.
